According to the NIST ThermoML archive (doi:10.1021/je5010214):

Settings: Liquid, Vibrating tube method

CCCCCCC [heptane]
Settings | mass density [kg/m3]
323.15 K, 34081 kPa | 690.434
323.15 K, 35113 kPa | 691.624
323.15 K, 37953 kPa | 693.659
323.15 K, 42011 kPa | 696.516
323.15 K, 48025 kPa | 700.814
323.15 K, 49934 kPa | 702.105
323.15 K, 52114 kPa | 703.681
323.15 K, 54964 kPa | 705.509
323.15 K, 58045 kPa | 707.475
323.15 K, 60050 kPa | 708.827
323.15 K, 62131 kPa | 710.008
323.15 K, 64999 kPa | 711.842
323.16 K, 920.7 kPa | 659.343
323.16 K, 27958 kPa | 685.975
323.16 K, 30055 kPa | 687.083
323.16 K, 33067 kPa | 689.946
323.16 K, 40047 kPa | 695.097
323.16 K, 44937 kPa | 698.783
323.16 K, 66131 kPa | 712.551
328.15 K, 100.8 kPa | 653.868
328.15 K, 289.9 kPa | 654.182
328.15 K, 897.5 kPa | 654.815
328.15 K, 994.1 kPa | 655.012
328.15 K, 1988.8 kPa | 656.162
328.15 K, 2996.7 kPa | 657.408
328.15 K, 5013.4 kPa | 659.794
328.15 K, 6974.9 kPa | 662.023
328.15 K, 9017 kPa | 664.204
328.15 K, 10040 kPa | 665.257
328.15 K, 24924 kPa | 679.489
328.15 K, 27979 kPa | 682.036
328.15 K, 29958 kPa | 683.395
328.15 K, 32060 kPa | 685.102
328.15 K, 33066 kPa | 685.969
328.15 K, 33107 kPa | 685.992
328.15 K, 34013 kPa | 687.01
328.15 K, 35030 kPa | 687.796
328.15 K, 38010 kPa | 690.025
328.15 K, 39969 kPa | 691.415
328.15 K, 41959 kPa | 692.865
328.15 K, 44953 kPa | 695.094
328.15 K, 47978 kPa | 697.371
328.15 K, 49926 kPa | 698.804
328.15 K, 51997 kPa | 700.259
328.15 K, 54947 kPa | 702.284
328.15 K, 57939 kPa | 704.221
328.15 K, 59991 kPa | 705.64
328.15 K, 61982 kPa | 707.057
328.15 K, 65032 kPa | 708.835
328.15 K, 66046 kPa | 709.499
328.16 K, 501 kPa | 654.211
328.16 K, 12210 kPa | 667.562
328.16 K, 15055 kPa | 670.204
328.16 K, 18061 kPa | 673.216
328.16 K, 20279 kPa | 675.247
328.16 K, 22013 kPa | 676.775
333.15 K, 100.4 kPa | 649.302
333.15 K, 532.6 kPa | 649.653
333.15 K, 897.8 kPa | 650.259
333.15 K, 1987.2 kPa | 651.687
333.15 K, 3023.4 kPa | 653.063
333.15 K, 4997.4 kPa | 655.338
333.15 K, 7002.4 kPa | 657.844
333.15 K, 9032 kPa | 660.047
333.15 K, 10210 kPa | 661.268
333.15 K, 15008 kPa | 666.206
333.15 K, 22034 kPa | 672.882
333.15 K, 28040 kPa | 678.188
333.15 K, 30016 kPa | 679.579
333.15 K, 32067 kPa | 681.185
333.15 K, 32977 kPa | 681.946
333.15 K, 34086 kPa | 683.474
333.15 K, 35075 kPa | 684.235
333.15 K, 37894 kPa | 686.324
333.15 K, 40111 kPa | 687.848
333.15 K, 41947 kPa | 689.191
333.15 K, 44974 kPa | 691.567
333.15 K, 47936 kPa | 693.899
333.15 K, 49920 kPa | 695.372
333.15 K, 51953 kPa | 696.893
333.15 K, 54876 kPa | 699.008
333.15 K, 58057 kPa | 700.988
333.15 K, 59993 kPa | 702.482
333.15 K, 62049 kPa | 703.927
333.15 K, 64970 kPa | 705.65
333.15 K, 66005 kPa | 706.481
333.16 K, 303.5 kPa | 649.622
333.16 K, 1003 kPa | 650.554
333.16 K, 12011 kPa | 663.322
333.16 K, 17992 kPa | 669.217
333.16 K, 20036 kPa | 671.108
333.16 K, 25027 kPa | 675.678
333.16 K, 33073 kPa | 682.004
338.15 K, 100.4 kPa | 644.915
338.15 K, 309.8 kPa | 645.161
338.15 K, 561.6 kPa | 645.341
338.15 K, 898.5 kPa | 645.924
338.15 K, 1014.1 kPa | 646.212
338.15 K, 2936.1 kPa | 648.694
338.15 K, 5018.6 kPa | 651.205
338.15 K, 10034 kPa | 657.126
338.15 K, 14885 kPa | 662.203
338.15 K, 17956 kPa | 665.481
338.15 K, 19927 kPa | 667.369
338.15 K, 22041 kPa | 669.319
338.15 K, 25026 kPa | 672.169
338.15 K, 29994 kPa | 676.134
338.15 K, 32882 kPa | 678.515
338.15 K, 33937 kPa | 679.921
338.15 K, 35012 kPa | 680.879
338.15 K, 39987 kPa | 684.582
338.15 K, 41990 kPa | 686.092
338.15 K, 44978 kPa | 688.463
338.15 K, 47971 kPa | 690.744
338.15 K, 49999 kPa | 692.38
338.15 K, 52127 kPa | 693.976
338.15 K, 57940 kPa | 697.82
338.15 K, 60014 kPa | 699.459
338.15 K, 65012 kPa | 702.688
338.15 K, 66057 kPa | 703.55
338.16 K, 2000.2 kPa | 647.409
338.16 K, 6917.3 kPa | 653.552
338.16 K, 9046.9 kPa | 656.063
338.16 K, 11959 kPa | 659.361
338.16 K, 27976 kPa | 674.704
338.16 K, 31949 kPa | 677.899
338.16 K, 32882 kPa | 678.499
338.16 K, 37962 kPa | 683.24
338.16 K, 54992 kPa | 696.066
338.16 K, 62074 kPa | 700.918
343.15 K, 105.1 kPa | 640.758
343.15 K, 297.3 kPa | 640.918
343.15 K, 520.3 kPa | 641.218
343.15 K, 911.7 kPa | 641.765
343.15 K, 1017.7 kPa | 641.938
343.15 K, 1994.6 kPa | 643.242
343.15 K, 2968.3 kPa | 644.553
343.15 K, 4994.8 kPa | 647.152
343.15 K, 6976.6 kPa | 649.726
343.15 K, 9002.6 kPa | 652.141
343.15 K, 10060 kPa | 653.267
343.15 K, 12024 kPa | 655.625
343.15 K, 14928 kPa | 658.769
343.15 K, 17975 kPa | 661.975
343.15 K, 19985 kPa | 664
343.15 K, 22033 kPa | 666.001
343.15 K, 25090 kPa | 668.93
343.15 K, 28045 kPa | 671.724
343.15 K, 30082 kPa | 673.379
343.15 K, 32170 kPa | 675.296
343.15 K, 33053 kPa | 676.043
343.15 K, 33097 kPa | 676.076
343.15 K, 35030 kPa | 677.808
343.15 K, 37943 kPa | 680.185
343.15 K, 40012 kPa | 681.817
343.15 K, 41972 kPa | 683.353
343.15 K, 44927 kPa | 685.751
